The values below come from US20240026339A1, “COMPOSITION AND THE USE OF CELL LYSIS REAGENTS” (Vilnius University, priority 2022, published 2024).

Several values for one entry are separate records, joined by “and”; a condition that tells them apart may be missing. Equal values may be shown once. Where a name gives a salt, the structure may show the parent alone.

In this experiment the test system is K-562 cells. Description: Cell lysis efficiency and cDNA yield in bulk (lysis and RT in one mix, PCR, BioAnalyzer/Qubit). Conditions: cDNA yield divided by cDNA yield with 0.1% NP40 of the same Part. The class given is cell-based. As for the experimental part:
The cells, lysis reagents and reverse transcription reagents are mixed together to create one reaction mix. The mRNA released from the lysed cells is reverse transcribed using oligonucleotides into a copy DNA (cDNA). The resulting cDNA is then purified using AMPure purification kit, PCR-amplified and analysed by capillary electrophoresis (BioAnalyzer). The DNA amount is also evaluated by fluorometer (Qubit) and the cDNA yields between different lysis conditions is compared to the reference (0.1% NP40).
The detailed composition and reaction conditions are provided below. Briefly, cell lysis and RT reaction were carried out in bulk with MCF7 and K562 cells. Samples containing 0.02%-0.6% of different cell lysis reagent were evaluated. After the RT reaction, cDNA was pass through a column to remove cell debris and gDNA, purified with 1.2× AMPure, eluted in 20 μl water, amplified by 12-cycles of PCR, purified reaction product with 1.2× AMPure and analyzed on BioAnalyzer chip.
Different sets of detergents were prepared in DEPC-water. Each set was tested separately. The cDNA yield for each detergent was compared to the cDNA yield obtained with 0.1% NP40 final concentration.
4. Setting Up RT Reaction: • 1. […] The final volume of reaction was 40 uL. • 4. RT reaction was carried out at 50° C. for 60 min followed by inactivation at 85° C. for 5 min. • 5. After RT reaction samples were immediately processed further by passing them through Zymo column for 1 min at 10000 g. • 6. The flow through fraction was cleaned up with 1.2× AMPure beads and eluted in 20 μL of water and processed further.
5. cDNA Amplification: • 7. cDNA amplification mix was prepared as follows:
• 8. 12 μL of cDNA amplification mix were mixed with 8 μL of purified cDNA material resulting in a total of 20 μL solution. • 9. Each sample was transferred to thermocycler and PCR program was started:
• 10. Amplified cDNA was cleaned up with 1.2× AMPure beads and eluted to 20 μL of water. • 11. DNA concentration of each sample was measured with Qubit. Samples were frozen only after cDNA amplification if needed). • 12. Calculate the dilution factor needed to reach 1 ng/uL for 0.1% NP40 sample, which is used as a reference. • 13. Load 1 μL of each sample (diluted as much times as 0.1% NP40 sample) on BioAnalyzer (BioA) HS DNA kit/chip and calculate the cDNA yield (ng/μl).
The “Relative lysis efficiency” was estimated by first quantifying the cDNA yield (ng/μl) obtained at a given lysis condition and then dividing the said cDNA yield by the cDNA yield obtained when using 0.1% NP40.

In turn, Tergitol NP40 had a Relative lysis efficiency (single detergent at 0.1%) of 0.63.

Compound Tween 60 came in with a Relative lysis efficiency (single detergent at 0.1%) of 0.65.

As for `CCCCCCCCCc1ccc(OCCOCCOCCOCCOCCOCCOCCOCCOCCO)cc1` [Igepal CO630], the Relative lysis efficiency (single detergent at 0.1%) is reported as 0.98.

For the compound `CCCCCCCCS[C@@H]1O[C@H](CO)[C@@H](O)[C@H](O)[C@H]1O` [n-octyl-β-D-thioglucopyranoside (OTG), n-octyl-β-D-thioglucopyranoside], the Relative lysis efficiency reads like this: (single detergent at 0.02%) 0.37; (single detergent at 0.1%) 0.31.

With `C[C@@H]1CC[C@@]2(OC1)O[C@H]1[C@@H](O)[C@H]3[C@@H]4CC[C@H]5C[C@@H](O[C@@H]6O[C@H](CO)[C@H](O[C@@H]7O[C@H](CO)[C@@H](O)[C@H](O[C@@H]8OC[C@@H](O)[C@H](O)[C@H]8O)[C@H]7O[C@@H]7O[C@H](CO)[C@H](O)[C@H](O[C@@H]8O[C@H](CO)[C@@H](O)[C@H](O)[C@H]8O)[C@H]7O)[C@H](O)[C@H]6O)[C@H](O)C[C@]5(C)[C@H]4CC[C@]3(C)[C@H]1[C@@H]2C` [Digitonin], the Relative lysis efficiency (single detergent at 0.02%) was found to be 0.85 and the Relative lysis efficiency (single detergent at 0.1%) came to 0.85.

Turning to Tween 20, the Relative lysis efficiency (single detergent at 0.1%) is 0.98 and 0.99; the Relative lysis efficiency (single detergent at 0.2%) stood at 0.99; the Relative lysis efficiency (single detergent at 0.3%) turned out to be 0.99; the Relative lysis efficiency (single detergent at 0.4%) was 0.99; the Relative lysis efficiency (single detergent at 0.6%) came out at 1.02.

In the case of `CCCCCCCCCCCCN(C)CC(=O)O` [N-Laurylsarcosine], the Relative lysis efficiency (single detergent at 0.02%) came to 0.41 and the Relative lysis efficiency (single detergent at 0.1%) is listed as 0.35.

Consider NP40, for which the Relative lysis efficiency runs as follows: (single detergent at 0.1%) 1.00; (single detergent at 0.2%) 1.01; (single detergent at 0.4%) 0.98; (single detergent at 0.6%) 1.18.

For (1-dodecyl) trimethylamonium bromide, the Relative lysis efficiency (single detergent at 0.02%) is given as 0.88 and the Relative lysis efficiency (single detergent at 0.1%) was 0.25.

Regarding Tween 80, the Relative lysis efficiency reads like this: (single detergent at 0.1%) 0.50 and 0.73; (single detergent at 0.2%) 0.69; (single detergent at 0.3%) 0.72; (single detergent at 0.4%) 0.71; (single detergent at 0.6%) 0.70.

On to `C[C@H](CCC(=O)NCCC[N+](C)(C)CCCS(=O)(=O)[O-])[C@H]1CC[C@H]2[C@@H]3[C@H](O)C[C@@H]4C[C@H](O)CC[C@]4(C)[C@H]3C[C@H](O)[C@]12C` [CHAPS], for which the Relative lysis efficiency amounted to 0.43 (single detergent at 0.02%) and 0.43 (single detergent at 0.1%).

Regarding `CCCCCCCCO[C@@H]1O[C@H](CO)[C@@H](O)[C@H](O)[C@H]1O` [n-octyl-β-D-glucopyranoside (OBG), n-octyl-β-D-glucopyranoside], the Relative lysis efficiency worked out at 0.36 (single detergent at 0.02%) and 0.36 (single detergent at 0.1%).

`C[C@H](CCC(=O)O)[C@H]1CC[C@H]2[C@@H]3CC[C@@H]4C[C@H](O)CC[C@]4(C)[C@H]3C[C@H](O)[C@]12C` [Deoxycholic acid Na salt]: the Relative lysis efficiency is, setting by setting: (single detergent at 0.02%) 0.51; (single detergent at 0.1%) 0.24.

The compound Triton X-100 gave a Relative lysis efficiency (single detergent at 0.1%) of 0.78.
